# Measurements published in patent US7172871B1, “Methods and compositions for modulating axonal outgrowth of central nervous system neurons” (Children's Medical Center Corporation, priority 2000, dated 2007).
# System: N-kinase
# Experiment: in-gel kinase method (histone HF-1 substrate, [32P]-ATP)
# Assay type: biochemical
# Details: in-gel kinase assay, [32P]-ATP plus Mn2+, with or without 6-TG present; bovine brain fractions
# Protocol: During the purification process, kinase activity was monitored using an in-gel kinase method. In this method, a histone HF-1 substrate protein is polymerized into a 10% polyacrylamide gel before the samples to be analyzed are electrophoresed in the gel. Following completion of the electrophoresis, proteins are partially renatured with guanidium isothiocyanate and incubated in the presence [^32P]-ATP plus Mn^2+, with or without 6-TG present. (Activation by Mn^2+, but not by Mg^2+ or Ca^2+, is a distinctive property of N-kinase). The purification of the kinase was monitored by looking for a 6-TG-inhibitable radioactive band corresponding to the site where the kinase phosphorylates the HF-1 substrate in the gel.
smiles,measurement,value
"Nc1nc2nc[nH]c2c(=S)[nH]1 [6-TG, 6-thioguanine]",inhibition of N-kinase HF-1-phosphorylating activity,inhibitable
